Values after ≈ are worked out from the molar mass of the structure shown.
Assays:
A. baumannii ATCC 19606 = conditions: Mueller Hinton II broth, 5 × 10^5 cells mL^−1, 18h, turbidity 600 nm, triplicate
P. aeruginosa strains = conditions: cited from earlier work
E.c K0416 = assay: microbe, parasite or virus in culture; conditions: Escherichia coli, K0416, read-out: Minimum inhibitory concentration, E.c K0416
E.c ATCC25922 ΔTolC = conditions: Table S3, triplicate
[1] = pH 7.4

CC(C)NCC(O)COc1cccc2ccccc12 (stereo not drawn) [Propranolol]
A-B permeability (Caco-2) (Caco-2 cells): 38.0 10^-6 cm s^-1
B-A permeability (Caco-2) (Caco-2 cells): 17.2 10^-6 cm s^-1

C[C@@H](O)[C@H](NC(=O)[C@H]1NC(=O)[C@H]([C@@H](C)O)NC(=O)[C@H]2NC(=O)[C@H](CC(N)=O)NC(=O)[C@@H](N)Cc3c[nH]c4c(cccc34)OC2c2c[nH]c3cc(ccc23)C1CCCN)C(=O)N[C@@H](Cc1ccccc1)C(=O)O (stereo partly drawn) [WNWTKTF]
Minimum inhibitory concentration, Ab ATCC 19606 (A. baumannii ATCC 19606): no activity against A. baumannii

murepavadin
MIC90 against P. aeruginosa strains (P. aeruginosa strains): 0.12 µg/mL

CNC(C)C1CCC(N)C(OC2C(N)CC(N)C(OC3OCC(C)(O)C(NC)C3O)C2O)O1 (stereo not drawn) [GEN, gentamicin]
MIC (E.c K0416): 4 µg/mL (≈ 8.38 µM)
Minimum inhibitory concentration, E.c ATCC25922 ΔTolC (E.c ATCC25922 ΔTolC): 0.5 µg/mL (≈ 1.05 µM)

CC(C)(O/N=C(\C(=O)N[C@@H]1C(=O)N2C(C(=O)[O-])=C(C[n+]3ccccc3)CS[C@H]12)c1csc(N)n1)C(=O)O [CZA, ceftazidime]
MIC (E.c K0416): 64 µg/mL (≈ 117 µM)

CO[C@H]1/C=C/O[C@@]2(C)Oc3c(C)c(O)c4c(O)c(c(/C=N/N5CCN(C)CC5)c(O)c4c3C2=O)NC(=O)/C(C)=C\C=C\[C@H](C)[C@H](O)[C@@H](C)[C@@H](O)[C@@H](C)[C@H](OC(C)=O)[C@@H]1C [Rifampicin]
Distribution coefficient (log D), logD7.4 [1]: 1.12

O=C(O)c1cn(C2CC2)c2cc(N3CCNCC3)c(F)cc2c1=O [CIP, ciprofloxacin]
MIC (E.c K0416): > 0.5 µg/mL
